The text below walks through data of PMC7827406, “Structure–Activity Relationship (SAR) Study of Spautin-1 to Entail the Discovery of Novel NEK4 Inhibitors” (International Journal of Molecular Sciences, 2021).

Structures are written as SMILES. Where two headings read alike, the source gives them in different places.

What all share (test): biochemical
What all share (parameters): Eurofins KinaseProfiler full panel at Km ATP, residual kinase activity (%) relative to DMSO

For one experiment, the target named is T1, AMPKα2(h) (Homo sapiens, UniProt P54646).
T1 construct: gene PRKAA2
In a few lines:
(§1)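 Compounds screened at 10 µM in radiometric kinase activity assays at Km ATP, reported as remaining kinase activity (%). A KINOMEscan competition-binding screen at 10 µM measured DNA-tagged kinase retained on immobilized active-site ligand by qPCR.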

A further experiment concerns the target BTK(h) (Homo sapiens, UniProt Q06187). In a few lines:
as §1

Another experiment addresses T2, CaMKIδ(h) (Homo sapiens, UniProt Q8IU85).
T2 construct: gene CAMK1D
In a few lines: as §1

A further experiment has as its target T3, DCAMKL1(h) (Homo sapiens, UniProt O15075).
T3 construct: gene DCLK1
T3 sequence (O15075 1-740): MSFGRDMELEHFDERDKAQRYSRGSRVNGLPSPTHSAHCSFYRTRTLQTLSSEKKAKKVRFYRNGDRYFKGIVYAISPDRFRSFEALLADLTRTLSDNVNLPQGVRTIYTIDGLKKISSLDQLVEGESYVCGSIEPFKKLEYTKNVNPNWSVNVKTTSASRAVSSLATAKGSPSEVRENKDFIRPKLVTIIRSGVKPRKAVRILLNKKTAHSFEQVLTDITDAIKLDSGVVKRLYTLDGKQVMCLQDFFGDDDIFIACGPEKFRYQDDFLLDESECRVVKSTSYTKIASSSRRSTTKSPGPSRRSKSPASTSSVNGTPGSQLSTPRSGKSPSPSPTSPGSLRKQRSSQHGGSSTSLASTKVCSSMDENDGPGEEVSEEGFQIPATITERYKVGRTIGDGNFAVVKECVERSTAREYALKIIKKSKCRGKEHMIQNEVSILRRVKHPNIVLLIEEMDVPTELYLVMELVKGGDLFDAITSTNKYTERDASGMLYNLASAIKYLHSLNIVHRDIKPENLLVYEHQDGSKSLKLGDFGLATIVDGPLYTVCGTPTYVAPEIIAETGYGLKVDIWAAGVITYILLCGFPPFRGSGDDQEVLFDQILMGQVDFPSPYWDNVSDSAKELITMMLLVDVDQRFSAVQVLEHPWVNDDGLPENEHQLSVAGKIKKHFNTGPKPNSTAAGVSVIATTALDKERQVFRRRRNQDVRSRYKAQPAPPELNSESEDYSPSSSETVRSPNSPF
In a few lines:
as §1

The target of another experiment is EGFR(T790M)(h) (Homo sapiens, UniProt P00533, T790M). Put shortly:
as §1

The next experiment addresses Fyn(h) (Homo sapiens, UniProt P06241). Put shortly:
as §1

A further experiment concerns the target HIPK3(h) (Homo sapiens, UniProt Q9H422). In a few lines: as §1
For a further experiment, the target named is T4, IR(h), activated (Homo sapiens, UniProt P06213).
T4 construct: gene INSR
Put shortly: as §1

Another experiment addresses T5, MINK(h) (Homo sapiens, UniProt Q8N4C8).
T5 construct: gene MINK1
Put shortly:
as §1

Experiment [1] addresses T6, PI3 Kinase (p110a(E542K)/p85a)(m) (Mus musculus, UniProt P42337, E542K).
T6 construct: gene Pik3ca
Put shortly:
as §1

A further experiment concerns the target T7, PTK5(h) (Homo sapiens, UniProt P42685).
T7 construct: gene FRK
In a few lines:
as §1

In another experiment the target is Plk1(h) (Homo sapiens, UniProt P53350). Put shortly: as §1
In the next experiment the target is TTBK1(h) (Homo sapiens, UniProt Q5TCY1). Put shortly: as §1
The target of another experiment is T8, Tie2(Y897S)(h) (Homo sapiens, UniProt Q02763, Y897S).
T8 construct: gene TEK
Put shortly:
as §1

[2] abbreviates: read-out: Residual activity (%) Spautin-1 5aa.
[3] abbreviates: read-out: Residual activity (%) 5as.
Setting [4] is: read-out: Residual activity (%) 5at.
[5] abbreviates: read-out: Residual activity (%) 5ay.

BTK(h), sequence (Q06187 whole entry): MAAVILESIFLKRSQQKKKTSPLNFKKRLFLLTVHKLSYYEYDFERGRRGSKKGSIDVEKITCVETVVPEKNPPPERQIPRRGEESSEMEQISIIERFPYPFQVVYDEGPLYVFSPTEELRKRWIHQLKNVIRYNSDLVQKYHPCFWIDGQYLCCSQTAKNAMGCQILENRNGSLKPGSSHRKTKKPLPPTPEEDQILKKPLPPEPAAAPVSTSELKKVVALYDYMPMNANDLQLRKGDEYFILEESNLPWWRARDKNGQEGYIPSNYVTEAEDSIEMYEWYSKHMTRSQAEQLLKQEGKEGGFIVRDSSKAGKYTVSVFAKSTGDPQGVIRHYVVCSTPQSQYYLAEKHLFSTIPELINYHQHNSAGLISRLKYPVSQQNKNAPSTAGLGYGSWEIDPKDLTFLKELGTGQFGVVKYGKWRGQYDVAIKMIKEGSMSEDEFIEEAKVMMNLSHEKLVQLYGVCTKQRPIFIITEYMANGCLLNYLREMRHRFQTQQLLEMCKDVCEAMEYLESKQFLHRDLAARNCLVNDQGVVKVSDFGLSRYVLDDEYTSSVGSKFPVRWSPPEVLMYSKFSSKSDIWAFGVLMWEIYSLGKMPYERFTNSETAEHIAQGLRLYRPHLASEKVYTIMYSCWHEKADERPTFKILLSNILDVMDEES
EGFR(T790M)(h), sequence (P00533 whole entry T790M): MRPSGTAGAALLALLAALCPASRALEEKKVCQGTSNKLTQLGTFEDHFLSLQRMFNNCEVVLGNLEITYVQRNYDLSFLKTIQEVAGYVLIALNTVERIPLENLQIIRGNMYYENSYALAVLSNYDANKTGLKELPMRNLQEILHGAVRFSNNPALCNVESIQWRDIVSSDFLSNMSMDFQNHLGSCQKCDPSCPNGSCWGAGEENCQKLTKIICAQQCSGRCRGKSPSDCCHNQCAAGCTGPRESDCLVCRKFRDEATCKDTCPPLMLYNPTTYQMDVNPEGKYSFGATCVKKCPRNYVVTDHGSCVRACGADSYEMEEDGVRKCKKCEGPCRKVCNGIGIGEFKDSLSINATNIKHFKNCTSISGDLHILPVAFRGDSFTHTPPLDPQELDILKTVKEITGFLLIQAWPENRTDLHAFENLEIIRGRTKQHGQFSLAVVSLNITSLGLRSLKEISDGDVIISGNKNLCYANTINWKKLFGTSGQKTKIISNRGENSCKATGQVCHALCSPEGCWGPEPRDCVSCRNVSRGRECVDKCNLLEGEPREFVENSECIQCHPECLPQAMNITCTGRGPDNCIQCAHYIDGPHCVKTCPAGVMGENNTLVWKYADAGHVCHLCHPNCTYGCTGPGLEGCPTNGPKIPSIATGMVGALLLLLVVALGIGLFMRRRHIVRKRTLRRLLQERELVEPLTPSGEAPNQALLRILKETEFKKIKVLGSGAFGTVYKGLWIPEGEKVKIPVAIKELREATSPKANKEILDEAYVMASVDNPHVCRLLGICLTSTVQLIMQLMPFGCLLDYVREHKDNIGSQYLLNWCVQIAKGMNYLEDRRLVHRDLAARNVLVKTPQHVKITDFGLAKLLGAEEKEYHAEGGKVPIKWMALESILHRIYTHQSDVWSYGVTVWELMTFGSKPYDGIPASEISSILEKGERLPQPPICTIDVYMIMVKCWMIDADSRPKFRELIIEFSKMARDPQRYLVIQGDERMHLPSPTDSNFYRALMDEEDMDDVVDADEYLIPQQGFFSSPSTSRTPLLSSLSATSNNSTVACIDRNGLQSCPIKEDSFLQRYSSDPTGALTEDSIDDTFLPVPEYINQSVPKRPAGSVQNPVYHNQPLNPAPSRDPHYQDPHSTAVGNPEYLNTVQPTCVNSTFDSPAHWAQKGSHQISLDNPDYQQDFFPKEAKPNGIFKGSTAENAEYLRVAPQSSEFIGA
T7 sequence (P42685 whole entry): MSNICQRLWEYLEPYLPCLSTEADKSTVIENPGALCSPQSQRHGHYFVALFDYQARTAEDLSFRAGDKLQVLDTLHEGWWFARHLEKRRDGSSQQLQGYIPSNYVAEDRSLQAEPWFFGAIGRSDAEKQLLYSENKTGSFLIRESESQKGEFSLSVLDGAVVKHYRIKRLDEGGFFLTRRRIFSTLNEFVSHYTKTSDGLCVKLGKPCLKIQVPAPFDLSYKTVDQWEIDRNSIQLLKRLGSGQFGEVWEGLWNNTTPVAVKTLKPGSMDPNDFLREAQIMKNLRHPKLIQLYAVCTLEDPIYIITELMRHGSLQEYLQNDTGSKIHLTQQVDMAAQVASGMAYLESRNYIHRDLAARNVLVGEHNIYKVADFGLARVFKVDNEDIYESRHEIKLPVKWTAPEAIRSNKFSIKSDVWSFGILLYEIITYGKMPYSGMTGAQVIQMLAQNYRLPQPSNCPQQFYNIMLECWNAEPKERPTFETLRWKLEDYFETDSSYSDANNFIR
Plk1(h), sequence (P53350 whole entry): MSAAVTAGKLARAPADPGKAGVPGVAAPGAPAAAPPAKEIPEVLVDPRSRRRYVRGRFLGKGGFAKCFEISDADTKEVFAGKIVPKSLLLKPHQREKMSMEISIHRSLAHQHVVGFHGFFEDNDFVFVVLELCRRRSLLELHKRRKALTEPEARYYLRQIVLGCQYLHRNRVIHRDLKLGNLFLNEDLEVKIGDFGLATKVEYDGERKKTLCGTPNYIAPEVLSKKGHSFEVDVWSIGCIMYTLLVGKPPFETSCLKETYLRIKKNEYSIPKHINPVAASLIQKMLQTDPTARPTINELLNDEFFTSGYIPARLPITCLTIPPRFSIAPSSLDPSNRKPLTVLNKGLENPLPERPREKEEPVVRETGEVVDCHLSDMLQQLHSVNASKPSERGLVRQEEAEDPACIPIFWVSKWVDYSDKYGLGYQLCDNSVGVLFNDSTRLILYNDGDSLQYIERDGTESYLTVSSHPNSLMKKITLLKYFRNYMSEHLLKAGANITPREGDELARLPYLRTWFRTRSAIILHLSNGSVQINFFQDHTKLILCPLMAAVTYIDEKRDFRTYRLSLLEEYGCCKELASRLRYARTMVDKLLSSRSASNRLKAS
Fyn(h), sequence (P06241 whole entry): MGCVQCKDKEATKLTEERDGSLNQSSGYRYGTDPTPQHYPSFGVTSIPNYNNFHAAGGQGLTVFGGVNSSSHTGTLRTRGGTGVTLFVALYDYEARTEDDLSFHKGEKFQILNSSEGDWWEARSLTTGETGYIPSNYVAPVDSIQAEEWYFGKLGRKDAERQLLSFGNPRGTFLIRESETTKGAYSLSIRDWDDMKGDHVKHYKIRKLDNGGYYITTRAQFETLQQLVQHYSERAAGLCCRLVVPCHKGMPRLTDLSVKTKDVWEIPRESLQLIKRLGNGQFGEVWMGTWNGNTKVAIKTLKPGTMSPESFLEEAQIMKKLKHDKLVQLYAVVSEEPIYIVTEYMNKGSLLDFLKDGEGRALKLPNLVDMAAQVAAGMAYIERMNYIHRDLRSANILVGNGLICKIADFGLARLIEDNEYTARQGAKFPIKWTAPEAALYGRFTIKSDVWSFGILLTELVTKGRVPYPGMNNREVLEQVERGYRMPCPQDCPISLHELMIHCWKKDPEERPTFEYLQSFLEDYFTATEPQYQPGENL
T2 sequence (Q8IU85 whole entry): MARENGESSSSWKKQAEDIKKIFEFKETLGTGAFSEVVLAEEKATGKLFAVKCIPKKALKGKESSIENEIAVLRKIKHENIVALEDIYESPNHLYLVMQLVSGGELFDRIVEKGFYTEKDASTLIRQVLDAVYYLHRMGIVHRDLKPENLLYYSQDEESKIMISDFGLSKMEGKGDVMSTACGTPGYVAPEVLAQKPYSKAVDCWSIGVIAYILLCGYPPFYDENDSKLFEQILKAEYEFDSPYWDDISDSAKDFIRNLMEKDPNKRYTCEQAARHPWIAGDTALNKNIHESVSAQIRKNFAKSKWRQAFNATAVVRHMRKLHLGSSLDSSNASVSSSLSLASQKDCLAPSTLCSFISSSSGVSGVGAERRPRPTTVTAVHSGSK
T8 sequence (Q02763 whole entry Y897S): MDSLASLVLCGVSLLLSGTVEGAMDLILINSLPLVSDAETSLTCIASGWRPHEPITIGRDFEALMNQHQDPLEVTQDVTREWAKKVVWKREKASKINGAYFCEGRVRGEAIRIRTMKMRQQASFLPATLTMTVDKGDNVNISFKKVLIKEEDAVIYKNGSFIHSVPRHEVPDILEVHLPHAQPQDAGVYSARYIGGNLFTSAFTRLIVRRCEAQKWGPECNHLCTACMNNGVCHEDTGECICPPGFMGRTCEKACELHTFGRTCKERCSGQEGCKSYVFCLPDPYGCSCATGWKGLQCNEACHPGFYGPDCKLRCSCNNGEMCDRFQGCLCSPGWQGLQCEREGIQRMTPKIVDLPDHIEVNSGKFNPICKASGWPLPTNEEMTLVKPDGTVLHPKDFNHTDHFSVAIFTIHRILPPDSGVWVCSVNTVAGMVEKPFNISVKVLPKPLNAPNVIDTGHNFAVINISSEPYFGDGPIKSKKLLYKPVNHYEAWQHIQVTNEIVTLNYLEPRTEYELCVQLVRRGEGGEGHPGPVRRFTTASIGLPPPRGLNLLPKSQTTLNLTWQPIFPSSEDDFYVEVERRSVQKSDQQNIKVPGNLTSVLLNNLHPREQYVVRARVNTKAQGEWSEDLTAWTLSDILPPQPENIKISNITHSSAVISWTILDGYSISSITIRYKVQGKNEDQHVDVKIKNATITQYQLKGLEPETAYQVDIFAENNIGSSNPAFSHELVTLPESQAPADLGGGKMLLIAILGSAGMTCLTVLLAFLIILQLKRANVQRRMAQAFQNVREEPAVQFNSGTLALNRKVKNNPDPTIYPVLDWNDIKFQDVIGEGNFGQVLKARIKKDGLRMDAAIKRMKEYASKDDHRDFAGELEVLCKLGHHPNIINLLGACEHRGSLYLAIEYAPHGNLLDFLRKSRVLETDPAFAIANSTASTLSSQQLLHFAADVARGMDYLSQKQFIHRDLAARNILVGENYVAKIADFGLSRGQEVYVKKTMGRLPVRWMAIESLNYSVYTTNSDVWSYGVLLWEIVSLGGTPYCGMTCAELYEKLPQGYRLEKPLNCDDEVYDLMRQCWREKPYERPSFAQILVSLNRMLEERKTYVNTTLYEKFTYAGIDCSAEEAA

Take `Fc1ccc(CNc2ncnc3ccc(F)cc23)cc1` [5aa, 6-Fluoro-N-(4-fluorobenzyl)-4-Quinazolinamine]: the remaining activity at 10 µM on AMPKα2(h) (setting [2]) amounted to 108%; on BTK(h) (setting [2]) it was 123%; at CaMKIδ(h) (setting [2]), 91%; at DCAMKL1(h) (setting [2]), 95%; at EGFR(T790M)(h) (setting [2]) it was 90%; at Fyn(h) (setting [2]) it was 63%. For the same compound, the remaining activity at 10 µM turned out to be 93% on HIPK3(h) (setting [2]); 98% on IR(h), activated (setting [2]); 86% on MINK(h) (setting [2]); 96% in [1] (setting [2]); 85% at PTK5(h) (setting [2]); 93% on Plk1(h) (setting [2]). Further, the remaining activity at 10 µM on TTBK1(h) (setting [2]) came to 119%; at Tie2(Y897S)(h) (setting [2]), 88%.
As for `Fc1ccc(CCNc2ncnc3ccc(F)cc23)cc1` [5as, 6-Fluoro-N-[2-(4-Fluorophenyl)Ethyl]-4-Quinazolinamine], the remaining activity at 10 µM on AMPKα2(h) (setting [3]) amounted to 108%; on BTK(h) (setting [3]), 113%; on CaMKIδ(h) (setting [3]), 90%; on DCAMKL1(h) (setting [3]), 82%; on EGFR(T790M)(h) (setting [3]), 87%; on Fyn(h) (setting [3]), 61%. The remaining activity at 10 µM on HIPK3(h) (setting [3]) stood at 98%; on IR(h), activated (setting [3]), 64%; at MINK(h) (setting [3]), 88%; in experiment [1] (setting [3]), 91%; on PTK5(h) (setting [3]), 84%; at Plk1(h) (setting [3]), 96%. Further, the values for the remaining activity at 10 µM at TTBK1(h) (setting [3]) and at Tie2(Y897S)(h) (setting [3]) were 104% and 94%, respectively.
On to `Fc1ccc2ncnc(NCCc3ccc(Cl)cc3)c2c1` [5at, N-[2-(4-Chlorophenyl)Ethyl]-6-Fluoro-4-Quinazolinamine], for which the remaining activity at 10 µM was found to be 109% on AMPKα2(h) (setting [4]); 96% at BTK(h) (setting [4]); 92% at CaMKIδ(h) (setting [4]); 89% on DCAMKL1(h) (setting [4]); 74% on EGFR(T790M)(h) (setting [4]); 75% at Fyn(h) (setting [4]). The remaining activity at 10 µM at HIPK3(h) (setting [4]) stood at 95%; on IR(h), activated (setting [4]), 76%; at MINK(h) (setting [4]) it was 89%; in experiment [1] (setting [4]), 94%; at PTK5(h) (setting [4]), 95%; at Plk1(h) (setting [4]), 92%. The results for the remaining activity at 10 µM at TTBK1(h) (setting [4]) and on Tie2(Y897S)(h) (setting [4]) were 114% and 85%, respectively.
In the case of `COc1ccc2ncnc(Nc3cccc(F)c3)c2c1` [5ay, N-(3-Fluorophenyl)-6-Methoxy-4-Quinazolinamine], the remaining activity at 10 µM amounted to 97% on AMPKα2(h) (setting [5]); 126% on BTK(h) (setting [5]); 89% at CaMKIδ(h) (setting [5]); 84% at DCAMKL1(h) (setting [5]); 65% on EGFR(T790M)(h) (setting [5]); 66% at Fyn(h) (setting [5]). The remaining activity at 10 µM on HIPK3(h) (setting [5]) was 84%; at IR(h), activated (setting [5]) it was 71%; on MINK(h) (setting [5]), 67%; in experiment [1] (setting [5]), 93%; on PTK5(h) (setting [5]), 64%; on Plk1(h) (setting [5]), 96%. Also, the remaining activity at 10 µM is 112% at TTBK1(h) (setting [5]) and 78% at Tie2(Y897S)(h) (setting [5]).
